From patent US9446039B2, “Aminoheteroaryl compounds as MTH1 inhibitors” (CEMM—FORSCHUNGSZENTRUM FÜR MOLEKULARE MEDIZIN GMBH, priority 2012, dated 2016)

Assays:
Type in all cases: binding
[1] = target: SW480 colon carcinoma cells lysate proteins (Homo sapiens, UniProt P06753); conditions: PreyGene TPM3
[2] = target: SW480 colon carcinoma cells lysate proteins (Homo sapiens, UniProt P15531); conditions: PreyGene NME1
[3] = target: SW480 colon carcinoma cells lysate proteins (Homo sapiens, UniProt P26447); conditions: PreyGene S100A4
[4] = target: T1, SW480 colon carcinoma cells lysate proteins (Homo sapiens, UniProt P30041); conditions: PreyGene PRDX6
T1 sequence (P30041 1-224): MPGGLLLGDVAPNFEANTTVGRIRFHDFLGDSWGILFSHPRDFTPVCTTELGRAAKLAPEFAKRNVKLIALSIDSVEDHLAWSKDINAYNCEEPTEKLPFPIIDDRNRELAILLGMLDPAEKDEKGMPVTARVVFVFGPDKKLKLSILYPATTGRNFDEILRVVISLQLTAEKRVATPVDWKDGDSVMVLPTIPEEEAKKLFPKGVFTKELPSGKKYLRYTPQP

[5] = target: T2, SW480 colon carcinoma cells lysate proteins (Homo sapiens, UniProt P30043); conditions: PreyGene BLVRB
T2 sequence (P30043 1-206): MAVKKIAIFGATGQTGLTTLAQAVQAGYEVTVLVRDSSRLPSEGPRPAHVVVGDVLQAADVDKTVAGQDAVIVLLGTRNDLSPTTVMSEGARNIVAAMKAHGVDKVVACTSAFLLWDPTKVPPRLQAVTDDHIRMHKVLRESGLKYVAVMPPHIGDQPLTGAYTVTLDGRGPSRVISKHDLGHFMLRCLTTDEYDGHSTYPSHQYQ

[6] = target: T3, SW480 colon carcinoma cells lysate proteins (Homo sapiens, UniProt P51659); conditions: PreyGene HSD17B4
T3 sequence (P51659 1-736): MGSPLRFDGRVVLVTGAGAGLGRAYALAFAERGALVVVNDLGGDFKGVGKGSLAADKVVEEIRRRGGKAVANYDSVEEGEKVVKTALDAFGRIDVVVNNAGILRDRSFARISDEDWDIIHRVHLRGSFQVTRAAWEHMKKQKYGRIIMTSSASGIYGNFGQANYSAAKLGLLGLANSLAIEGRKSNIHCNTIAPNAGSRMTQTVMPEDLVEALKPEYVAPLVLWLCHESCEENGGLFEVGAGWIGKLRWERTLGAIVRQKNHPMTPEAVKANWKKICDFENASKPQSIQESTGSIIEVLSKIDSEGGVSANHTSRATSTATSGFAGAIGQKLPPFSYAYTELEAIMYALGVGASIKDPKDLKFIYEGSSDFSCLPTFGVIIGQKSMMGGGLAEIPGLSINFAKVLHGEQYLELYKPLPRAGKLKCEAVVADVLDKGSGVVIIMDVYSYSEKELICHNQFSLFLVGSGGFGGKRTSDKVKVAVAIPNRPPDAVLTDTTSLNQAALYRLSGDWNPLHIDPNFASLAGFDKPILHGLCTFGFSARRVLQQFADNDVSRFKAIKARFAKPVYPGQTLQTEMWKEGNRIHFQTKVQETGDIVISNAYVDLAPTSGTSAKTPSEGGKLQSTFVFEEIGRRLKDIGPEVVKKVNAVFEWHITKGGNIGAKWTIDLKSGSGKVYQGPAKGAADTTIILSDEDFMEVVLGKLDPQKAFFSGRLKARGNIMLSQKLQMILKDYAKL

[7] = target: SW480 colon carcinoma cells lysate proteins (Homo sapiens, UniProt P63313); conditions: PreyGene TMSB10
[8] = target: SW480 colon carcinoma cells lysate proteins (Homo sapiens, UniProt P67936); conditions: PreyGene TPM4
[9] = target: T4, SW480 colon carcinoma cells lysate proteins (Homo sapiens, UniProt Q14019); conditions: PreyGene COTL1
T4 sequence (Q14019 1-142): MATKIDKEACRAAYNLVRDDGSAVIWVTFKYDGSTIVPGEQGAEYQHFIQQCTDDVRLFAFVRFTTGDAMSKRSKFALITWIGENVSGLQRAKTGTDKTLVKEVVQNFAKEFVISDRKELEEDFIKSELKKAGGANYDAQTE

[10] = target: SW480 colon carcinoma cells lysate proteins (Homo sapiens, UniProt Q7Z406); conditions: PreyGene MYH14; SW480 cells
Sequence of SW480 colon carcinoma cells lysate proteins (Homo sapiens, UniProt Q7Z406) (Q7Z406 whole entry): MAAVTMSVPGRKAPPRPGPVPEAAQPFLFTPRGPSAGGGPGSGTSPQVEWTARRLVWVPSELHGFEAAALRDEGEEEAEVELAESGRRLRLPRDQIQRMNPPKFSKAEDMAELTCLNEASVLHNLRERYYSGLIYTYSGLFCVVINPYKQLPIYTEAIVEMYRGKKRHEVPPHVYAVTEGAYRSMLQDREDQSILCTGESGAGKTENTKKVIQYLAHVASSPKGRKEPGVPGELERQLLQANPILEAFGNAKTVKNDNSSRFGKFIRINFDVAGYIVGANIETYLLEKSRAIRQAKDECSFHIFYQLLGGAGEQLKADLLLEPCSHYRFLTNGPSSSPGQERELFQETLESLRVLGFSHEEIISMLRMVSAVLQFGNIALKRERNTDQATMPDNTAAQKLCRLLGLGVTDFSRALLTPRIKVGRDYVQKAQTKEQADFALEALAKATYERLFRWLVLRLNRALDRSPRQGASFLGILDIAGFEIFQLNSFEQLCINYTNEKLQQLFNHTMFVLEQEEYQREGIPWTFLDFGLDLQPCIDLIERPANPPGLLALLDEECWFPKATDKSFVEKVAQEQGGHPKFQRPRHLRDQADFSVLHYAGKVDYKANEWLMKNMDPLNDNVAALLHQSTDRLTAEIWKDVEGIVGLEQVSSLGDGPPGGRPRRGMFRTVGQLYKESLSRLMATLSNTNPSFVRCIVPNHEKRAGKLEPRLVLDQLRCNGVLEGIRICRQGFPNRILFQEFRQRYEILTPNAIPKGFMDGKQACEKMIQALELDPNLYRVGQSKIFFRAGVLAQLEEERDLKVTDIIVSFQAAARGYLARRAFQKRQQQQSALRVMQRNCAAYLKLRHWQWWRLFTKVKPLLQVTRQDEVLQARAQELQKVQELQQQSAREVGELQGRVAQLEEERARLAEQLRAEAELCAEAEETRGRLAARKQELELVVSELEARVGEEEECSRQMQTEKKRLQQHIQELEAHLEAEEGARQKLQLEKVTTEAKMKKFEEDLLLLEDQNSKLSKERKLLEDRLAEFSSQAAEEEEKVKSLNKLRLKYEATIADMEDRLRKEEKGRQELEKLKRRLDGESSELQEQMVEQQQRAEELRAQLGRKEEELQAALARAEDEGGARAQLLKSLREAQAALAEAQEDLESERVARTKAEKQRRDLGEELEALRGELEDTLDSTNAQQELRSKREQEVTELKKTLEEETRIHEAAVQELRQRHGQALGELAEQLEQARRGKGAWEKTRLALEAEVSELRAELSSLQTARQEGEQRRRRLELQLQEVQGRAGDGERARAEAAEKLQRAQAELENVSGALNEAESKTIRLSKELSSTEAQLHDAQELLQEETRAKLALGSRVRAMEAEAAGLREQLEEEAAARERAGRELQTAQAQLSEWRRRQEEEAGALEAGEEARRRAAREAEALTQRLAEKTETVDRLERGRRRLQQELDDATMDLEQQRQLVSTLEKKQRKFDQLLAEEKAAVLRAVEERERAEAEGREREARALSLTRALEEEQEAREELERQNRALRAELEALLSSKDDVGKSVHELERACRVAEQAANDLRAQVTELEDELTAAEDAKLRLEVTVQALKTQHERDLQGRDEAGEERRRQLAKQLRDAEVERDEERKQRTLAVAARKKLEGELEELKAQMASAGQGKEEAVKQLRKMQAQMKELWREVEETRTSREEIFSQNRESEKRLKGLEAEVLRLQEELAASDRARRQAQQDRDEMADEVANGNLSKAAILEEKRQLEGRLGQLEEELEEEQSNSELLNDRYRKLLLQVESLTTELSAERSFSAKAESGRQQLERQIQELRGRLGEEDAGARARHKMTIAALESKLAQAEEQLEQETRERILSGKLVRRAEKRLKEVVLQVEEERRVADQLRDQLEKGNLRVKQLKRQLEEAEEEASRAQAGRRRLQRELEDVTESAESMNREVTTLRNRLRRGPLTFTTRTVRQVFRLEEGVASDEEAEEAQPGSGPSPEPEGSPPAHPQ

Sequence of SW480 colon carcinoma cells lysate proteins (Homo sapiens, UniProt P06753) (P06753 whole entry): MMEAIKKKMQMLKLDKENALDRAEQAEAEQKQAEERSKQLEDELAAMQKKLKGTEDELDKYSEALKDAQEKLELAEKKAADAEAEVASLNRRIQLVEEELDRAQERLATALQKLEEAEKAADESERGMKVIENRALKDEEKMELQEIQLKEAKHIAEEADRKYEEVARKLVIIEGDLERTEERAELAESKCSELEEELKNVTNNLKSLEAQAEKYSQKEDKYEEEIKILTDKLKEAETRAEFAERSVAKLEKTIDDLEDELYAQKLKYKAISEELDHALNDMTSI
Sequence of SW480 colon carcinoma cells lysate proteins (Homo sapiens, UniProt P26447) (P26447 whole entry): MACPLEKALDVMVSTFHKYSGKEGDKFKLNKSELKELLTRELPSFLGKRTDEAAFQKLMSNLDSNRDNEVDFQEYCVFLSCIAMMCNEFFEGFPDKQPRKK
Sequence of SW480 colon carcinoma cells lysate proteins (Homo sapiens, UniProt P67936) (P67936 whole entry): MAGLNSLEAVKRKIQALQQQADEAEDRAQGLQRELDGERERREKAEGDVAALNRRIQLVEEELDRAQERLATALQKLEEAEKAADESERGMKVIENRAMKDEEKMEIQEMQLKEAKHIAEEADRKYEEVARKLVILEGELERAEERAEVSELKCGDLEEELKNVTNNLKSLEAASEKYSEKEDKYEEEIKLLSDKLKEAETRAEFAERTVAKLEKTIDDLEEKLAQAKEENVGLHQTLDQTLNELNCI
Sequence of SW480 colon carcinoma cells lysate proteins (Homo sapiens, UniProt P63313) (P63313 whole entry): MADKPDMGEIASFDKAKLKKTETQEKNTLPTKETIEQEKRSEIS
Sequence of SW480 colon carcinoma cells lysate proteins (Homo sapiens, UniProt P15531) (P15531 whole entry): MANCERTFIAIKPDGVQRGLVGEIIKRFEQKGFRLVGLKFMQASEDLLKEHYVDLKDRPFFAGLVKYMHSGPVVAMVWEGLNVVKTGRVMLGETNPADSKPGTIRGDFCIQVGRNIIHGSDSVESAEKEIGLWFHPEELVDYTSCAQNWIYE

Structure (SMILES): C[C@H](Oc1cc(-c2cnn(C3CCNCC3)c2)cnc1N)c1c(Cl)ccc(F)c1Cl [(5)-crizotinib]
- AvgP [1]: 0.4204
- SC.Exp. 1-1 [1]: 2
- SC.Exp. 1-2 [1]: 3
- SC.Exp. 2-1 [1]: 0
- SC.Exp. 2-2 [1]: 0
- Sum (SC.Exp.) [1]: 5
- AvgP [2]: 0.4442
- SC.Exp. 1-1 [2]: 6
- SC.Exp. 1-2 [2]: 4
- SC.Exp. 2-1 [2]: 0
- SC.Exp. 2-2 [2]: 0
- Sum (SC.Exp.) [2]: 10
- AvgP [3]: 0.3894
- SC.Exp. 1-1 [3]: 3
- SC.Exp. 1-2 [3]: 2
- SC.Exp. 2-1 [3]: 0
- SC.Exp. 2-2 [3]: 0
- Sum (SC.Exp.) [3]: 5
- AvgP [4]: 0.1992
- SC.Exp. 1-1 [4]: 8
- SC.Exp. 1-2 [4]: 8
- SC.Exp. 2-1 [4]: 0
- SC.Exp. 2-2 [4]: 0
- Sum (SC.Exp.) [4]: 16
- AvgP [5]: 0.1915
- SC.Exp. 1-1 [5]: 0
- SC.Exp. 1-2 [5]: 2
- SC.Exp. 2-1 [5]: 0
- SC.Exp. 2-2 [5]: 0
- Sum (SC.Exp.) [5]: 2
- AvgP [6]: 0.3179
- SC.Exp. 1-1 [6]: 2
- SC.Exp. 1-2 [6]: 3
- SC.Exp. 2-1 [6]: 0
- SC.Exp. 2-2 [6]: 0
- Sum (SC.Exp.) [6]: 5
- AvgP [7]: 0.3518
- SC.Exp. 1-1 [7]: 2
- SC.Exp. 1-2 [7]: 2
- SC.Exp. 2-1 [7]: 0
- SC.Exp. 2-2 [7]: 0
- Sum (SC.Exp.) [7]: 4
- AvgP [8]: 0.4193
- SC.Exp. 1-1 [8]: 5
- SC.Exp. 1-2 [8]: 2
- SC.Exp. 2-1 [8]: 0
- SC.Exp. 2-2 [8]: 0
- Sum (SC.Exp.) [8]: 7
- AvgP [9]: 0.4372
- SC.Exp. 1-1 [9]: 5
- SC.Exp. 1-2 [9]: 4
- SC.Exp. 2-1 [9]: 0
- SC.Exp. 2-2 [9]: 0
- Sum (SC.Exp.) [9]: 9
- AvgP [10]: 0
- SC.Exp. 1-1 [10]: 1
- SC.Exp. 1-2 [10]: 1
- SC.Exp. 2-1 [10]: 0
- SC.Exp. 2-2 [10]: 0
- SC.Exp. Sum [10]: 2
